Columns and labels:
HCT116 [1] = assay: AC50 cell viability (CellTiter-Glo); higher = less potent; conditions: 48 h
HCT116 [2] = assay: efficacy (fitted maximal change in viability relative to DMSO control); higher = less cytotoxic (negative = loss of viability); conditions: 48 h
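For AC50 cell viability (CellTiter-Glo) in this document: HCT116 colorectal carcinoma cells screened at five concentrations per compound, luminescent viability scaled between DMSO wells and empty wells on each plate, curves fitted per compound.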
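For efficacy (fitted maximal change in viability relative to DMSO control) in this document: Luminescence-based viability readout, five doses per compound, normalized against on-plate DMSO and empty-well controls, followed by dose-response curve fitting for every drug.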

Row | Structure (SMILES) | AC50 cell viability (HCT116 [1]) | efficacy (HCT116 [2])
1 | O=C(/C=C\n1cnc(-c2cc(C(F)(F)F)cc(C(F)(F)F)c2)n1)NNc1ccccn1 [Verdinexor] | 0.59 µM | -83.9%
2 | CCCCNc1ncc(-c2ccc(CN3CCOCC3)cn2)c(N[C@H]2CC[C@H](O)CC2)n1 [UNC2250] | 3.62 µM | -51.5%
3 | CO[C@H]1CCC(O[C@H]2C[C@H]([C@]3(C)CC[C@]4(C[C@H](O)[C@@H](C)[C@@H]([C@@H](C)/C=C(\C)C(=O)[C@H](C)C[C@H](C)C(=O)[O-])O4)O3)O[C@]3(O[C@@H]([C@H]4O[C@@](O)(CO)[C@H](C)C[C@@H]4C)C[C@@H]3C)[C@@H]2C)O[C@@H]1C (stereo partly drawn) [Nanchangmycin] | 2.95 µM | -101%
4 | CN(C)CCN1C(=O)c2cccc3cc(N)cc(c23)C1=O [Amonafide] | 4.17 µM | -72.8%
5 | CC(C)C(=O)OCC(=O)[C@@]12O[C@@H](O[C@@H]1C[C@H]3[C@@H]4CC\C5=C\C(=O)\C=C/[C@]5(C)[C@H]4[C@@H](O)C[C@]23C)C6CCCCC6 [Ciclesonide] | 20.9 µM | -78.4%
6 | COc1cccc2cc(-c3nc([C@H]4CC[C@H](C(=O)O)CC4)n4ncnc(N)c34)[nH]c12 [OSI-027] | 11.8 µM | -94.5%
7 | CCN1CCN(Cc2ccc(-c3cc4c(N[C@H](C)c5ccccc5)ncnc4[nH]3)cc2)CC1 [AEE-788] | 16.6 µM | -97.5%
8 | COc1cc2nc(-c3ccc(N4CCN(C)CC4)cc3)nc(NCCN3CCOCC3)c2cc1OC | 2.95 µM | -87.2%
9 | CNC(=O)[C@@H](NC(=O)[C@H](CC(C)C)[C@H](O)C(=O)NO)C(C)(C)C [Marimastat] | 20.9 µM | -54.3%
10 | O=C(NCc1ccccc1)c1csc(Nc2ccncn2)n1 [Thiazovivin] | 20.9 µM | -84%
11 | Cc1cc(O[C@@H](CCC(F)(F)F)c2ccc(C(=O)NCCC(=O)O)cc2)cc(C)c1-c1ccc(C(C)(C)C)cc1 [Adomeglivant] | 26.3 µM | -115%
12 | CC(C)NCCCn1c(Sc2cc(Cl)cc(Cl)c2)nc2c(N)ncnc21 [PU-WS-13] | 20.9 µM | -82.4%
13 | CCCCCCCCCCCCCC(=O)N[C@H](CO)[C@H](O)c1ccc([N+](=O)[O-])cc1 [D-NMAPPD] | 26.3 µM | -101%
14 | CN1CCC(CC1)COC2=CN=C(N=C2)C3=CC(=CC=C3)CN4/N=C(\C=C/C4=O)C5=CC(=CC=C5)C#N | 7.42 µM | -30.6%
15 | COc1cc(-c2cc(-c3ccc(N4CCNCC4)cc3)cnc2C)cc(OC)c1OC | 9.34 µM | -57.2%
16 | Cc1cc(Cl)ccc1OCCCC(=O)NO [Droxinostat] | 20.9 µM | -57.1%
17 | C[C@H]([C@H]1C\C(=C(CO)/C(=O)O1)C)[C@H]2CC[C@H]3[C@@H]4C[C@H]5O[C@]56[C@@H](O)\C=C/C(=O)[C@]6(C)[C@H]4CC[C@]23C [Withaferin A] | 1.66 µM | -102%
18 | ClC1=CC=C(CCCOC/2=N/NC(=O)C(=C2NCC3=CN=CC=C3)/Br)C=C1 [Parogrelil] | 18.6 µM | -86.2%
19 | Cc1cc(Nc2nc(N[C@@H](C)c3ccc(F)cc3)c(C#N)cc2F)n[nH]1 [AZ-960] | 5.9 µM | -100%
20 | COc1ccc(N2C(=O)N(c3c(C)cccc3Cl)Cc3cnc(Nc4ccc(C5CCN(C)CC5)cc4OC)nc32)nc1 [YKL-05-099] | 10.5 µM | -99.4%
21 | CC(C)(C)Cn1c(N)nc2ccc(-c3[nH]c(C(C)(C)C)nc3-c3ccc(F)cc3)nc21 | 23.5 µM | -83.7%
22 | CC[C@@]1(O)C(=O)OCc2c1cc1n(c2=O)Cc2cc3c(CN(C)C)c(O)ccc3nc2-1.Cl [Topotecan hydrochloride] | 0.59 µM | -93%
23 | COC(=O)C1C2CC3c4[nH]c5cc(OC)ccc5c4CCN3CC2CC(OC(=O)c2cc(OC)c(OC)c(OC)c2)C1OC (stereo not drawn) [Reserpine] | 20.9 µM | -68.3%
24 | Cc1c(NC(=O)OCC2COCCN2)cn2ncnc(Nc3ccc4c(cnn4Cc4cccc(F)c4)c3)c12 (stereo not drawn) | 26.3 µM | -91.3%
25 | C[C@@H]1C[C@H]2[C@@H]3\C=C(C)/C4=C/C5=C(C[C@]4(C)[C@H]3[C@@H](O)C[C@]2(C)[C@@]1(O)C(=O)CO)C=N[N]5C6=CC=CC=C6 [Deacetyl cortivazol] | 26.3 µM | -121%
26 | CCN1C(=O)\C(=C/C2=CN=C(NC3=CC=C(C=C3)N4CCN(C)CC4)N=C12)C5=C(Cl)C=C(C=C5)C6=CN=CS6 [FRAX-597] | 5.9 µM | -59%
27 | CC/C(=C(/CC)c1ccc(O)cc1)c1ccc(O)cc1 [Diethylstilbestrol] | 18.6 µM | -47.2%
28 | COC(=O)Nc1cc(Nc2cc(NC3CC3)c3ncc(C#N)n3n2)c(Cl)c(N2CCN(C)CC2)c1 [BMS-595] | 0.525 µM | -103%
29 | CN(C)CCN(C)C(=O)c1ccc(NC(=O)Nc2ccc(-c3nc(N4CCOCC4)c4ccn(CC(F)(F)F)c4n3)cc2)cc1 | 0.263 µM | -118%
